Measurements as given in article PMC8445441, “Elucidating the mechanism by which synthetic helper peptides sensitize Pseudomonas aeruginosa to multiple antibiotics” (PLoS Pathogens, 2021).
Several values for one entry are separate records, joined by “and”; a condition that tells them apart may be missing. Identical values can stand only once. Like-named read-outs stand apart in the source and are kept apart here. Positions of bridges follow the written chain, without caps; N, C: chain ends. Non-standard residues stand in square brackets, D forms with d. Residues, ends and D or L forms follow the SMILES beside them. No end group written: not given here. *: point of attachment. Ileψ(thiazoline)Cys = CC[C@H](C)[C@H](N)C1=N[C@H](C(=O)*)CS1; dOrn = NCCC[C@@H](N)C(=O)O; βNA = c1ccc2cc(N*)ccc2c1

Tests used:
P. aeruginosa PAO1 = test: microbe, parasite or virus in culture; details: for MICa: the MIC of antibiotics / MIC: antibiotic alone; for MIC: Pseudomonas aeruginosa, read-out: MICa: the MIC of antibiotics, S3 Table
Procedure: (§1) The MIC tests were performed in triplicate using broth microdilution in accordance with Clinical and Laboratory Standards Institute (CLSI) recommendations (http://iacld.ir/DL/public/CLSI-2018-M100-S28.pdf). Briefly, drugs were two-fold diluted in MHB and mixed with an equal volume of bacterial suspensions containing approximately 1 × 10^6 CFU/mL in 96-well microliter plate. After 18 h incubation at 37 °C, the MIC values were defined as the lowest concentrations of antibiotics with no visible growth of bacteria. […] Otherwise, 1/4 MIC of the peptide was used in the combination. […] If needed, membrane compounds PG, PE, PC, CL or LPS, or membrane stabilizers MgCl2 or CaCl2, or efflux pumps inhibitor PAβN were added to the broth medium to clarify the effect of other substances on the synergy between peptide and antibiotics. All the tests were performed in triplicate.
The fractional inhibitory concentration (FIC) indices were calculated using the previously described formula FICI = FICa + FICb = MICac/MICa + MICbc/MICb. The FICI was interpreted according to EUCAST [65] as follows: synergistic, FICI≤0.5; additive, 0.5<FICI≤1; indifferent, 1<FICI<2; antagonistic, FICI ≥2. For the FICI calculations, twice the highest concentration tested was used in the cases where the MIC was not reached.

[1] = system: clinical P. aeruginosa isolates; test: microbe, parasite or virus in culture; details: antibiotic alone; for MIC: Pseudomonas aeruginosa, 18 h
Procedure: The bacterial strains, primers and plasmids used in this study are listed in S5 Table. […] Bacteria were cultured in LB medium or cation-adjusted Muller-Hinton broth (CA-MHB) at 37 °C with agitation at 220 rpm. All the antibiotics and chemical compounds used in this study were purchased from Sigma-Aldrich.
as §1

[2] = S3 Table, PAO1, antibiotic + 2 μM D-11
[3] = S3 Table, PAO1, antibiotic + 4 μM D-11
[4] = read-out: Antibiotic sensibility (MIC) of clinical P. aeruginosa isolate AUMC-Pa-1, strain AUMC-Pa-1
[5] = read-out: Antibiotic sensibility (MIC) of clinical P. aeruginosa isolate AUMC-Pa-2, strain AUMC-Pa-2
[6] = read-out: Antibiotic sensibility (MIC) of clinical P. aeruginosa isolate AUMC-Pa-3, strain AUMC-Pa-3
[7] = read-out: Antibiotic sensibility (MIC) of clinical P. aeruginosa isolate AUMC-Pa-4, strain AUMC-Pa-4
[8] = read-out: Antibiotic sensibility (MIC) of clinical P. aeruginosa isolate AUMC-Pa-5, strain AUMC-Pa-5
[9] = read-out: Antibiotic sensibility (MIC) of clinical P. aeruginosa isolate AUMC-Pa-6, strain AUMC-Pa-6
[10] = read-out: Antibiotic sensibility (MIC) of clinical P. aeruginosa isolate HM-214, strain HM-214
[11] = read-out: Antibiotic sensibility (MIC) of clinical P. aeruginosa isolate NR-31040, strain NR-31040
[12] = read-out: Antibiotic sensibility (MIC) of clinical P. aeruginosa isolate NR-31041, strain NR-31041
[13] = peptide alone, PAO1, broth microdilution in MHB, 18 h, 37 °C, triplicate

| Molecule | FICI (P. aeruginosa PAO1; [2]) | FICI (P. aeruginosa PAO1; [3]) | MICac: the MIC for the antibiotic in the combination (P. aeruginosa PAO1; S3 Table, PAO1, with 2 μM D-11) | MICac: the MIC for the antibiotic in the combination (P. aeruginosa PAO1; S3 Table, PAO1, with 4 μM D-11) | MICa: the MIC of antibiotics (P. aeruginosa PAO1; S3 Table, PAO1) | MIC [1, 4] | MIC [1, 5] | MIC [1, 6] | MIC [1, 7] | MIC [1, 8] | MIC [1, 9] | MIC [1, 10] | MIC [1, 11] | MIC [1, 12] | further results |
| --- | --- | --- | --- | --- | --- | --- | --- | --- | --- | --- | --- | --- | --- | --- | --- |
| NCC[C@H](O)C(=O)N[C@@H]1C[C@H](N)[C@@H](O[C@H]2O[C@H](CN)[C@@H](O)[C@H](O)[C@H]2O)[C@H](O)[C@H]1O[C@H]1O[C@H](CO)[C@@H](O)[C@H](N)[C@H]1O [Amikacin] | 1.063 | 2.125 | 1/1 μM | 2 µM | 1/1 μM and 1 μM | 1 µM | 0.25 µM | 0.0625 µM | 1 µM | 1 µM | 2 µM | 1 µM | 4 µM | 2 µM | – |
| CC1(C)S[C@@H]2[C@H](NC(=O)[C@H](N)c3ccc(O)cc3)C(=O)N2[C@H]1C(=O)O [Amoxicin, Amoxicillin] | – | 1.125 | >128/>128 μM | >128/>128 μM | – | > 128 µM | > 128 µM | > 128 µM | > 128 µM | > 128 µM | > 128 µM | > 128 µM | > 128 µM | > 128 µM | MIC (P. aeruginosa PAO1; PAO1, 18 h, PAO1): > 128 µM |
| CC1(C)S[C@@H]2[C@H](NC(=O)[C@H](N)c3ccccc3)C(=O)N2[C@H]1C(=O)O [Ampicillin] | – | 1.125 | >128/>128 μM | >128/>128 μM | – | > 128 µM | > 128 µM | > 128 µM | > 128 µM | > 128 µM | > 128 µM | > 128 µM | > 128 µM | > 128 µM | MIC (P. aeruginosa PAO1; PAO1, 18 h, PAO1): > 128 µM |
| CC[C@H](C)[C@H](N)C1=N[C@H](C(=O)N[C@@H](CC(C)C)C(=O)N[C@H](CCC(=O)O)C(=O)N[C@H](C(=O)N[C@H]2CCCCNC(=O)[C@H](CC(N)=O)NC(=O)[C@@H](CC(=O)O)NC(=O)[C@H](Cc3cnc[nH]3)NC(=O)[C@@H](Cc3ccccc3)NC(=O)[C@H]([C@@H](C)CC)NC(=O)[C@@H](CCCN)NC2=O)[C@@H](C)CC)CS1 [Bacitracin] ({Ileψ(thiazoline)Cys}-L[dE]IK[dOrn]I[dF]H[dD]N; lactam 4-C (inferred); N-terminus assumed) | 1.063 | 1.125 | >128/>128 μM | >128/>128 μM | >128/>128 μM | – | – | – | – | – | – | – | – | – | Antibiotic sensibility (MIC) of clinical P. aeruginosa isolate AUMC-Pa-1 ([1]; strain AUMC-Pa-1): >128 µM; Antibiotic sensibility (MIC) of clinical P. aeruginosa isolate AUMC-Pa-2 ([1]; strain AUMC-Pa-2): >128 µM; Antibiotic sensibility (MIC) of clinical P. aeruginosa isolate AUMC-Pa-3 ([1]; strain AUMC-Pa-3): >128 µM; Antibiotic sensibility (MIC) of clinical P. aeruginosa isolate AUMC-Pa-4 ([1]; strain AUMC-Pa-4): >128 µM; Antibiotic sensibility (MIC) of clinical P. aeruginosa isolate AUMC-Pa-5 ([1]; strain AUMC-Pa-5): >128 µM; Antibiotic sensibility (MIC) of clinical P. aeruginosa isolate AUMC-Pa-6 ([1]; strain AUMC-Pa-6): >128 µM; Antibiotic sensibility (MIC) of clinical P. aeruginosa isolate HM-214 ([1]; strain HM-214): >128 µM; Antibiotic sensibility (MIC) of clinical P. aeruginosa isolate NR-31040 ([1]; strain NR-31040): >128 µM; Antibiotic sensibility (MIC) of clinical P. aeruginosa isolate NR-31041 ([1]; strain NR-31041): >128 µM |
| CO/N=C(\C(=O)N[C@@H]1C(=O)N2C(C(=O)[O-])=C(C[N+]3(C)CCCC3)CS[C@H]12)c1csc(N)n1 [Cefepime] | 0.563 | 0.625 | 1 µM | 1 µM | 2 µM | 8 µM | 0.5 µM | 2 µM | 2 µM | 4 µM | 4 µM | 128 µM | 4 µM | 16 µM | – |
| Cc1onc(-c2ccccc2)c1C(=O)N[C@@H]1C(=O)N2[C@@H]1SC(C)(C)[C@@H]2C(=O)O [Oxacillin] | 1.063 | 1.125 | – | – | – | – | – | – | – | – | – | – | – | – | – |
| NC(N)=NCCC[C@H](NC(=O)[C@@H](N)Cc1ccccc1)C(=O)Nc1ccc2ccccc2c1 [PAβN] (H-Phe-Arg-βNA) | – | – | – | – | – | – | – | – | – | – | – | – | – | – | reduction of the MIC of azithromycin by PAβN (P. aeruginosa PAO1; PAO1, in the absence of D-11): 64 fold; reduction of the MIC of azithromycin by PAβN (P. aeruginosa PAO1; PAO1, in the presence of D-11, higher concentration of PAβN): two |
| N=C(N)c1ccc(OCCCCCOc2ccc(C(=N)N)cc2)cc1 [Pentamidine] | 1.063 | 1.125 | 128/128 μM | 128/128 μM | 128/128 μM | – | – | – | – | – | – | – | – | – | – |
| CC[C@@H](C)[C@@H](NC(=O)[C@@H](CCCCN)NC(=O)[C@@H](CCCCN)NC(=O)[C@@H](Cc1c[nH]c2ccccc12)NC(=O)[C@@H](CC(C)C)NC(=O)[C@H](N)CCCNC(=N)N)C(=O)N[C@H](CCCNC(=N)N)C(=O)N[C@H](CCC(N)=O)C(=O)N[C@@H](C(=O)N[C@@H](C(=O)N[C@H](CCCNC(=N)N)C(=O)N[C@H](CCCCN)C(N)=O)[C@H](C)CC)C(C)C [Peptide D-11R] (H-[dR][dL][dW][dK][dK][dI][dR][dQ][dV][dI][dR][dK]-NH2) | – | – | – | – | – | – | – | – | – | – | – | – | – | – | MICb: the MIC of the peptide (P. aeruginosa PAO1; PAO1, 18 h): 32 µM |
| GIGKHVGKALKGLKGLLKGLGEC [ADP-1] | – | – | – | – | – | – | – | – | – | – | – | – | – | – | MICb: the MIC of the peptide (P. aeruginosa PAO1; [13]): 16 µM |
| GNNRPVYIPQPRPPHPRL [Api1b] | – | – | – | – | – | – | – | – | – | – | – | – | – | – | FICI (P. aeruginosa PAO1; PAO1, peptide + azithromycin, twice the highest concentration used where MIC not reached): 1.125; MICb: the MIC of the peptide (P. aeruginosa PAO1; [13]): > 32 µM |
| KHVGKALKGLK [ADP-1b] | – | – | – | – | – | – | – | – | – | – | – | – | – | – | MICb: the MIC of the peptide (P. aeruginosa PAO1; PAO1, 18 h): > 32 µM |
